Source: PMC8286840, “Identifying SARS-CoV-2 antiviral compounds by screening for small molecule inhibitors of Nsp3 papain-like protease” (Biochemical Journal, 2021)
Counter-ions that a name gives are not always drawn. Like-named read-outs stand apart in the source and are kept apart here. Where a SMILES comes first, the peptide text is derived from it. [ ]: non-standard residue; d: D form. αMeP = C[C@@]1(C(=O)O)CCCN1

Columns and labels:
[1] = biological target: T1, SARS-CoV-2 PLpro (nsp3 1564–1878) (Severe acute respiratory syndrome coronavirus 2, UniProt P0DTD1); assay: biochemical; design: FRET-quenched peptide (Pro3) cleavage by PLpro, 10 min pre-incubation, slope over 20 min, normalised to no-compound control; details: low concentration screen, read-out: % of control remaining
[2] = biological target: T1, SARS-CoV-2 PLpro (nsp3 1564–1878); assay: biochemical; design: FRET-quenched peptide (Pro3) cleavage by PLpro, 10 min pre-incubation, slope over 20 min, normalised to no-compound control; details: high concentration screen, read-out: % of control remaining

C[C@@]1(C(=O)N[C@@H](CCC(=O)O)C(=O)O)CCCN1C(=O)CN [Trofinetide] (H-Gly-[αMeP]-Glu-OH)
remaining activity at 1.25 µM ([1]; Well no.=8554): 108%
remaining activity at 3.75 µM ([2]; Well no.=8554): 98.6%

COc1cc(C(O)C(=O)O)ccc1O (centres unmarked) [hydroxy(4-hydroxy-3-methoxyphenyl)acetic acid]
remaining activity at 1.25 µM ([1]; Well no.=5433): 103%
remaining activity at 3.75 µM ([2]; Well no.=5433): 108%

CCCN(CCC)CCc1ccc(O)c(O)c1 [Dipropyldopamine hydrobromide]
remaining activity at 1.25 µM ([1]; Well no.=684): 98.3%
remaining activity at 3.75 µM ([2]; Well no.=684): 98.3%

CCCC[N+]1(C)[C@@H]2C[C@@H](OC(=O)[C@H](CO)c3ccccc3)C[C@H]1[C@@H]1O[C@@H]12 (some centres unmarked) [Scopolamine N-butylbromide]
remaining activity at 1.25 µM ([1]; Well no.=3355): 99.9%
remaining activity at 3.75 µM ([2]; Well no.=3355): 98.9%

CCCCCCCCOC(=O)/C=C/c1ccc(O)c(O)c1 [n-Octyl caffeate]
remaining activity at 1.25 µM ([1]; Well no.=4043): 93.2%
remaining activity at 3.75 µM ([2]; Well no.=4043): 95.8%

O=C(O)C1=C[C@@H](O)[C@@H](O)[C@H](O)C1 [Shikimic acid]
remaining activity at 1.25 µM ([1]; Well no.=3116): 98.2%
remaining activity at 1.25 µM ([1]; Well no.=7209): 104%
remaining activity at 3.75 µM ([2]; Well no.=3116): 98.6%
remaining activity at 3.75 µM ([2]; Well no.=7209): 102%

CNC(=O)[C@H](Cc1c[nH]c2ccccc12)NC(=O)[C@@H](CC(=O)NO)CC(C)C [Ilomastat (GM6001, Galardin)]
remaining activity at 1.25 µM ([1]; Well no.=9030): 101%
remaining activity at 3.75 µM ([2]; Well no.=9030): 94.4%

N[C@@H](Cc1ccc(O)c(O)c1)C(=O)O [L-DOPA]
remaining activity at 1.25 µM ([1]; Well no.=6861): 91.2%
remaining activity at 3.75 µM ([2]; Well no.=6861): 92.3%

C[C@@H]([C@@H](O)c1ccc(O)cc1)N1CCC(O)(c2ccccc2)CC1 [CP-101,606]
remaining activity at 1.25 µM ([1]; Well no.=5843): 94.8%
remaining activity at 3.75 µM ([2]; Well no.=5843): 93.1%

OC1CCCCC1N1CCC(c2ccccc2)CC1 (racemic)
remaining activity at 1.25 µM ([1]; Well no.=1290): 101%
remaining activity at 3.75 µM ([2]; Well no.=1290): 97.9%

CCn1c(=O)c2c(nc(/C=C/c3ccc(OC)c(OC)c3)n2C)n(CC)c1=O [Istradefylline]
remaining activity at 1.25 µM ([1]; Well no.=6903): 98.1%
remaining activity at 1.25 µM ([1]; Well no.=8461): 109%
remaining activity at 3.75 µM ([2]; Well no.=6903): 99.6%
remaining activity at 3.75 µM ([2]; Well no.=8461): 101%

COC1(C2=NCCN2)COc2ccccc2O1 (centres unmarked) [RX 821002 hydrochloride]
remaining activity at 1.25 µM ([1]; Well no.=1208): 100%
remaining activity at 3.75 µM ([2]; Well no.=1208): 98.7%

C=CC[N+](C)(C)c1ccc(CCC(=O)CCc2ccc([N+](C)(C)CC=C)cc2)cc1 [BW 284c51]
remaining activity at 1.25 µM ([1]; Well no.=152): 98.6%
remaining activity at 3.75 µM ([2]; Well no.=152): 101%

Cc1ccc(-c2n[nH]c3c2C(c2cccc(O)c2)N(c2ccc(C(=O)O)cc2)C3=O)cc1 (centres unmarked) [4-(4-(3-hydroxyphenyl)-3-(4-methylphenyl)-6-oxo-4,6-dihydropyrrolo[3,4-c]pyrazol-5(1H)-yl)benzoic acid]
remaining activity at 1.25 µM ([1]; Well no.=5969): 100%
remaining activity at 3.75 µM ([2]; Well no.=5969): 97.4%

COc1cc(-c2oc3cc(O)cc(O)c3c(=O)c2O)ccc1O [Isorhamnetine]
remaining activity at 1.25 µM ([1]; Well no.=3150): 99.4%
remaining activity at 3.75 µM ([2]; Well no.=3150): 99.7%

CN1[C@@H]2CC[C@H]1C[C@@H](OC(=O)[C@H](CO)c1ccccc1)C2 [L-Hyoscyamine]
remaining activity at 1.25 µM ([1]; Well no.=424): 99.2%
remaining activity at 1.25 µM ([1]; Well no.=6801): 103%
remaining activity at 3.75 µM ([2]; Well no.=424): 96.8%
remaining activity at 3.75 µM ([2]; Well no.=6801): 99.4%

Cn1cnc2c(F)c(Nc3ccc(Br)cc3Cl)c(C(=O)NOCCO)cc21 [AZD6244]
remaining activity at 1.25 µM ([1]; Well no.=3028): 95.9%
remaining activity at 3.75 µM ([2]; Well no.=3028): 95.3%

O=S(=O)(NCCNC/C=C/c1ccc(Br)cc1)c1cccc2cnccc12 [H 89 dihydrochloride - N-[2-[[3-(4-Bromophenyl)-2-propenyl]amino]ethyl]-5-isoquinolinesulfonamide dihydrochloride]
remaining activity at 1.25 µM ([1]; Well no.=2636): 95.6%
remaining activity at 3.75 µM ([2]; Well no.=2636): 99.1%

CN1CCN(c2c(F)cc3c(=O)c(C(=O)O)cn4c3c2SCC4)CC1 [Rufloxacin]
remaining activity at 1.25 µM ([1]; Well no.=2239): 98.6%
remaining activity at 3.75 µM ([2]; Well no.=2239): 97.3%

Nc1ncnc2c1ncn2[C@@H]1O[C@H](CO)[C@@H](O)[C@H]1O [Adenosine]
remaining activity at 1.25 µM ([1]; Well no.=200): 94%
remaining activity at 1.25 µM ([1]; Well no.=6301): 105%
remaining activity at 1.25 µM ([1]; Well no.=8048): 87.9%
remaining activity at 3.75 µM ([2]; Well no.=200): 95.6%
remaining activity at 3.75 µM ([2]; Well no.=6301): 102%
remaining activity at 3.75 µM ([2]; Well no.=8048): 88.7%

COCCOC(=O)C1=C(C)NC(C)=C(C(=O)OC(C)C)C1c1cccc([N+](=O)[O-])c1 (centres unmarked) [Nimodipine]
remaining activity at 1.25 µM ([1]; Well no.=844): 100%
remaining activity at 1.25 µM ([1]; Well no.=1717): 104%
remaining activity at 3.75 µM ([2]; Well no.=844): 97.1%
remaining activity at 3.75 µM ([2]; Well no.=1717): 101%

CCC1(c2cccc(O)c2)CCCCN(C)C1 (centres unmarked) [Meptazinol (hydrochloride)]
remaining activity at 1.25 µM ([1]; Well no.=6511): 102%
remaining activity at 3.75 µM ([2]; Well no.=6511): 98.2%

CC(C)(F)C[C@H](N[C@@H](c1ccc(-c2ccc(S(C)(=O)=O)cc2)cc1)C(F)(F)F)C(=O)NC1(C#N)CC1 [Odanacatib (MK-0822)]
remaining activity at 1.25 µM ([1]; Well no.=8836): 88.7%
remaining activity at 3.75 µM ([2]; Well no.=8836): 92.8%

CN(C)c1ccc(/C=C2\C(=O)Nc3ccccc32)cc1 [SU 4312]
remaining activity at 1.25 µM ([1]; Well no.=1179): 97.9%
remaining activity at 3.75 µM ([2]; Well no.=1179): 101%

O=C1C=CC(=O)C=C1 [p-Benzoquinone]
remaining activity at 1.25 µM ([1]; Well no.=166): 102%
remaining activity at 3.75 µM ([2]; Well no.=166): 105%

COC(=O)/C=C/c1cc(O)ccc1O [2,5-Dihydroxycinnamic acid methyl ester]
remaining activity at 1.25 µM ([1]; Well no.=495): 103%
remaining activity at 3.75 µM ([2]; Well no.=495): 106%

CC(CCC(=O)O)C(=O)O (centres unmarked) [2-Methylpentanedioic acid]
remaining activity at 1.25 µM ([1]; Well no.=6733): 99.7%
remaining activity at 3.75 µM ([2]; Well no.=6733): 105%

NS(=O)(=O)c1cc2c(cc1Cl)NC(C1CC3C=CC1C3)NS2(=O)=O (centres unmarked) [Cyclothiazide]
remaining activity at 1.25 µM ([1]; Well no.=387): 104%
remaining activity at 3.75 µM ([2]; Well no.=387): 101%

CNC(=O)[C@H]1O[C@@H](n2cnc3c(NCc4cccc(I)c4)nc(Cl)nc32)[C@H](O)[C@@H]1O [2-Cl-IB-MECA]
remaining activity at 1.25 µM ([1]; Well no.=6316): 95%
remaining activity at 3.75 µM ([2]; Well no.=6316): 90.2%

C/C(=N\NC(=O)C(NC(=O)c1ccccc1)c1n[nH]c(=O)c2ccccc12)c1cccc(Br)c1 (centres unmarked) [AC-55541]
remaining activity at 1.25 µM ([1]; Well no.=6997): 106%
remaining activity at 3.75 µM ([2]; Well no.=6997): 106%

CO[C@H]1[C@@H](OC)C[C@H](C)[C@@H](OC)C2=CC(=O)C=C(NC(=O)/C(C)=C/C=C\[C@H](OC)[C@@H](OC(N)=O)/C(C)=C/[C@@H]1C)C2=O [Herbimycin A, Streptomyces sp.]
remaining activity at 1.25 µM ([1]; Well no.=2419): 104%
remaining activity at 3.75 µM ([2]; Well no.=2419): 111%
